This test deals with young and elderly healthy volunteers. As to the kind of experiment: Cognitive Event-Related Potentials (ERP) latency composite score, correlated with plasma drug concentrations. The conditions noted are these: plasma concentration at 1.5 h in subjects with best ERP latencies composite score (ERP at Day 10, 6 h post-dose). The format is in vivo, human. The procedure: The study below was a double blind placebo control study performed in accordance with the European Medicines Agency ICH-E6 (R1) guideline recommendations and the French law n° 2004-806, Aug. 9, 2004 relative to public health law. The study was a preliminary study whose one of the objectives was to assess baclofen and acamprosate combinatorial treatment to improve cognition in young and elderly healthy volunteers. The study was conducted on a cohort of 24 human subjects.
Briefly, the duration of treatment was of 10 days.
Electrophysiological measurement of Cognitive Event-Related Potentials (ERPs) were recorded to assess the cognitive performances of the subjects. ERPs are the electrophysiological response to a stimulus and could serve as a surrogate biological marker of cognitive performances. Here, the cognitive task required paying attention and to count odd stimuli according to a specific protocol. Potential is recorded during the test. An ERP latency composite score is determined from the different derivations. […]
A correlation was searched between each of the different endpoints (i.e. the cognitive tests, or the ERP latency composite score) and drug concentrations determined at each sampling time.
Pearson's correlation coefficient was determined for each of the endpoints and different plasmatic concentrations measured as a function of time.

For `NCC(CC(=O)O)c1ccc(Cl)cc1` (centres unmarked) [baclofen], the “Most efficient plasmatic concentration in trial” value is at least 500 ng/mL.

`CC(=O)NCCCS(=O)(=O)O` [acamprosate]: the “Most efficient plasmatic concentration in trial” value is over 2.5 ng/mL.

(Values after US20200306211A1, “METHOD FOR ADAPTING DOSES OF COMBINATION THERAPIES” (Pharnext, priority 2015, published 2020).)
